According to patent publication US9879243B2, “Culture medium for cell growth and transfection” (LIFE TECHNOLOGIES CORPORATION, priority 2001, dated 2018):

Assays:
[1] = system: CHO cells; assay: Effect of replacement compounds on the growth of CHO cells in CD CHO medium without transferrin, three passages; format: cell-based, Chinese hamster; conditions: third passage
Method in brief: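 CHO cells seeded at 1×10^5 viable cells/mL in transferrin-free CD CHO medium, 37 °C, 8% CO2, subcultured every 4 days for three passages. Compounds tested alone or complexed with ferric chloride or ferrous sulfate at 25, 50 and 100 μM; growth as mean percentage of the 5 μg/mL holo-transferrin control at the third passage, duplicate cultures.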

[2] = system: 293 cells; assay: Growth and adaptation of 293 cells to test media before transfection; format: cell-based, human; conditions: for support of growth at the ZnSO4 concentrations tested: Example 7, ethyl maltol 50 μM, 2-hydroxypyridine 25 μM, DPTA.FeSO4 50 μM, ZnSO4 0.5×-5×
Experimental: When cultured in suspension, cells were split to 3×10^5 viable cells per ml at each passage. On the week of transfection cells were seeded at 3×10^5 viable cells per ml. After ˜48 hrs of growth (day 2) cells were vortexed for 30 seconds and counted and appropriate volumes used for transfection as described in procedures below.
293 cells were grown in monolayer culture in base medium supplemented with the indicated replacement compounds at the concentrations specified in Table 9.

[3] = system: 293 cells; assay: X-gal in situ staining, % transfection efficiency, 293 cells in 24-well plates; format: cell-based, human; conditions: Example 7
Experimental: The third well of each treatment was used for in situ staining for β-galactosidase activity (i.e., ˜1×10^6 cells).
The transfection efficiency of cells grown in the presence of ZnSO4+ chelating agent as a replacement for insulin was tested at various concentrations of chelator and ZnSO4 and the results are shown in Table 10. Cells were prepared in monolayer culture in base medium containing the indicated supplements and transfected and assayed as described above.
293 cells were grown in monolayer culture in base media supplemented with the indicated chelator and metal salt at the indicated concentrations. The concentration of the chelator is given in μmoles/l and the concentration of the metal salt is given in μgrams/ml. […] The concentration of the cells in the media was 1×10^6 cell/ml, the concentration of DNA used was 1 μg DNA/10^6 cells, the concentration of LIPOFECTAMINE 2000 used was 8 μl/10^6 cells.
For cells transfected in 24-well plates, cells densities used were 1×10^6 viable cells per well.

[4] = 25 μM, control 5 μg/mL human holo-transferrin

Compound	mean percentage of control growth [1, 4]	mean percentage of control growth ([1]; 50 μM)	mean percentage of control growth ([1]; 100 μM)	growth in the presence of ZnSO4 ([2]; Example 6, in combination with ZnSO4 instead of insulin)	support of growth at the ZnSO4 concentrations tested [2]	X-gal staining transfection efficiency ([3]; media with 1× ZnSO4) [%]	X-gal staining transfection efficiency ([3]; media with insulin)	support of growth ([2]; Example 6, 100 μM)
Diethylenetriamine Penta-Acetic Acid•Ferrous Sulfate	135 percentage of control growth	137 percentage of control growth	147 percentage of control growth	acceptable	supported growth at concentrations of 1×, 2× and 5× ZnSO4, but not at 0.5×			
CCc1occc(=O)c1O [2-Ethyl-3-Hydroxy-4-Pyrone]	9 percentage of control growth	60 percentage of control growth	113 percentage of control growth		supported growth at all concentrations of ZnSO4 tested	~40	50-60%	did not support growth
